# Laboratory results reported in US12139617B2, “Polymeric fluorophores, compositions comprising the same, and methods of preparing and using the same” (North Carolina State University, priority 2017, dated 2024).
# Assays:
# [1] = Fluorescence quantum yield of F1-F3 and D1-D3; assay type: physicochemical
# Excerpt: […] […] These comparisons indicate the absence of dye-dye quenching resulting from the aggregation for F1 and F2 in μM aqueous solutions. […] Also, a smaller phthalocyanine skeleton (e.g. with methyl instead of heptyl as peripheral groups) may be encapsulated with the current length of copolymer successfully.
# [2] = Absorption and emission spectra of copolymers F1-F3 and fluorophores D1-D3; assay type: physicochemical
# Excerpt: The target dye-loaded copolymers F1-F3 were then subject to investigations of their spectroscopic properties in both organic solvents and aqueous solution. […] Attaching to the 120-kDa amphiphilic copolymer drastically enhances the water solubility of BODIPY D1 and chlorin D2 without strong perturbation on the spectroscopic properties. Emission band for F1 and F2 in water remains the same as the ones measured in organic solutions, showing minimal dye-dye interaction is involved in aqueous solution of F1 and F2 at μM concentration. […] This negative result may be because of the inappropriate size of the copolymer backbone. Polymer larger in size may be required to encapsulate large hydrophobic fluorophores like the phthalocyanine D3.
# All chemicals obtained commercially were used as received unless otherwise noted. Reagent-grade solvents (CH2Cl2, THF, methanol) and HPLC-grade water were used as received. NMR data was measured in a solution of CDCl3 unless otherwise noted. Noncommercial compounds 1, 2, and 4 were prepared following literature procedures. […] Samples were detected with Agilent 1260 infinity refractive index detector. Absorption spectra were measured on Agilent 8453 and Shimadzu UV1800 instruments using dilute (μmolar) solutions of the compound in UV transparent (e.g., quartz) cuvettes versus a solvent blank at room temperature.
Φf (fluorescence quantum yield) ([1]; CH2Cl2),absorption wavelength [2] [nm],Φf (fluorescence quantum yield) ([1]; Toluene),Compound
0.19,640,,"Cc1cc(C)c(-c2c3nc(c(-c4ccc(C(=O)NN)cc4)c4ccc(cc5nc(cc6ccc2[nH]6)CC5(C)C)[nH]4)C=C3)c(C)c1 [Compound D2, 5-[4-(N-Aminocarbamoyl)phenyl]-10-Mesityl-18,18-dimethylchlorin]"
,700,0.68,"CCCCCCCc1cc2c(cc1CCCCCCC)-c1nc-2nc2[nH]c(nc3nc(nc4[nH]c(n1)c1cc(CCCCCCC)c(CCCCCCC)cc41)-c1cc(C#Cc4ccc(CC(=O)NN)cc4)ccc1-3)c1cc(CCCCCCC)c(CCCCCCC)cc21 [Compound D3, 2-[4-(N-Aminocarbamoyl)methylphenylethynyl]-9,10,16,17,23,24-hexaheptylphthalocyanine]"
